Patent US8211892B2, “Tetrahydroquinoxaline urea derivatives” (Sanofi-Aventis, priority 2008, dated 2012)
pIC50: −log10 of the molar value.

What was measured:
[1] = molecular target: T1, recombinant 11βHSD1 protein (Homo sapiens, UniProt P28845); assay: SPA (Scintillation Proximity Assay) test of in vitro inhibition of the enzyme 11βHSD1, 384-well format; assay type: biochemical; conditions: 3H-cortisone and NADPH, SPA beads, cortisol formed; read-out: IC50 (concentration which inhibits 50% of the activity of 11βHSD1)
T1 construct: made in house; host or cells: Saccharomyces cerevisiae
T1 sequence (P28845 whole entry, species assumed): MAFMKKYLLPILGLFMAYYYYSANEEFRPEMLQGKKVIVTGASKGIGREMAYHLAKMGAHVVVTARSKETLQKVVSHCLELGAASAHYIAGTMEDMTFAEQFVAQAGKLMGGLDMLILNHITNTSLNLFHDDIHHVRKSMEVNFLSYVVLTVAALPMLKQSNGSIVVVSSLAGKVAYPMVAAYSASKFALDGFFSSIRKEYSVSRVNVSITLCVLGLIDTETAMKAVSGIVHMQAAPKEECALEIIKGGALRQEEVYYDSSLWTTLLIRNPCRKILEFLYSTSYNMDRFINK
Description: The compounds according to the invention formed the subject of pharmacological assays which make it possible to determine their inhibiting effect on the enzyme 11βHSD1, which is involved in the metabolism of lipids and the metabolism of glucose.
These assays consisted in measuring the in vitro inhibiting activity of the compounds of the invention on the enzyme 11βHSD1 by virtue of an SPA (Scintillation Proximity Assay) test in 384-well format. The recombinant 11βHSD1 protein was produced in the yeast S. cerevisiae. The reaction was carried out by incubating the enzyme in the presence of ^3H-cortisone and of NADPH, in the absence or in the presence of an increasing concentration of inhibitor. SPA beads coupled to an antimouse antibody, which are preincubated with an anticortisol antibody, made it possible to measure the amount of cortisol formed during the reaction.

11βHSD1 in the eyes = molecular target: T2, 11βHSD1 in the eyes (Homo sapiens, UniProt P28845); conditions: healthy volunteers, treatment for seven days; cited from earlier work
T2 construct: The 11βHSD1 is located in the nonpigmented epithelial calls; host or cells: healthy volunteers (in vivo, ocular tissue)
T2 sequence (P28845 whole entry): as the sequence (P28845 whole entry, species assumed) above

| Compound | pIC50 [1] | melting point [°C] | reduction of the intraocular pressure (IOP) (11βHSD1 in the eyes) [%] |
| --- | --- | --- | --- |
| O=C(NC1C2CC3CC1CC(O)(C3)C2)N1CCN(c2ccc(N3CCC(F)(F)CC3)cc2)c2ccccc21 (centres unmarked) [compound 30] | 7.03 | 95 |  |
| CC(C)(C)N1CCC(c2ccc(N3CCN(C(=O)N[C@H]4C5CC6CC4C[C@@](C(N)=O)(C6)C5)c4ccccc43)nc2)CC1 [compound 170, Trans-4-(1′-(tert-Butyl)-1′,2′,3′,4′,5′,6′-hexahydro-[3,4′]bipyridinyl-6-yl)-3,4-dihydro-2H-quinoxaline-1-carboxylic Acid (5-carbamoyladamantan-2-yl)Amide] |  | 228 |  |
| O=C(N[C@H]1C2CC3CC1C[C@@](O)(C3)C2)N1CCN(c2ccc(N3CCC(O)CC3)cc2)c2ccccc21 [Compound No. 51, Trans-4-[4-(4-Hydroxypiperidin-1-yl)Phenyl]-3,4-dihydro-2H-quinoxaline-1-carboxylic Acid (5-hydroxyadamantan-2-yl)Amide] |  | 131 |  |
| CS(=O)(=O)N1CCN(c2ccc(N3CCN(C(=O)N[C@H]4C5CC6CC4C[C@@](CO)(C6)C5)c4ccccc43)cc2)CC1 [Compound No. 21, Trans-4-[4-(4-(Methanesulphonyl)Piperazin-1-yl)Phenyl]-3,4-dihydro-2H-quinoxaline-1-carboxylic Acid (5-(hydroxymethyl)Adamantan-2-yl)Amide] |  | 160 |  |
| CS(=O)(=O)N1CCN(c2ccc(N3CCN(C(=O)N[C@H]4C5CC6CC4C[C@@](F)(C6)C5)c4ccccc43)cc2)CC1 [Compound No. 40, Trans-4-[4-(4-(Methanesulphonyl)Piperazin-1-yl)Phenyl]-3,4-dihydro-2H-quinoxaline-1-carboxylic Acid (5-fluoroadamantan-2-yl)Amide] |  | 165 to 200 |  |
| CS(=O)(=O)N1CC=C(c2ccc(N3CCN(C(=O)NC4C5CC6CC4CC(O)(C6)C5)c4ccccc43)cc2)CC1 (centres unmarked) [compound 15] | 7.31 | 103 |  |
| CS(=O)(=O)N1CCC(O)(c2ccc(N3CCN(C(=O)N[C@H]4C5CC6CC4C[C@@](O)(C6)C5)c4ccccc43)cc2)CC1 [Compound No. 16, Trans-4-[4-(4-Hydroxy-1-(methanesulphonyl)Piperidin-4-yl)Phenyl]-3,4-dihydro-2H-quinoxaline-1-carboxylic Acid (5-hydroxy-adamantan-2-yl)Amide] | 7.55 | 160 |  |
| CC(=O)N[C@]12CC3CC(C1)[C@H](NC(=O)N1CCN(c4ccc(N5CCN(S(C)(=O)=O)CC5)cc4)c4ccccc41)C(C3)C2 [Compound No. 137, Trans-4-[4-(4-(Methanesulphonyl)Piperazin-1-yl)Phenyl]-3,4-dihydro-2H-quinoxaline-1-carboxylic Acid (5-acetylaminoadamantan-2-yl)Amide] | 6.89 | 250 |  |
| O=C(NC1C2CC3CC1CC(O)(C3)C2)N1CCN(c2ccc(Oc3nccc(C(F)(F)F)n3)cc2)c2ccccc21 (centres unmarked) [compound 14] | 7.55 | 197 |  |
| CC(C)(C)N1CCN(c2ccc(N3CCN(C(=O)NC4C5CC6CC4CC(C(N)=O)(C6)C5)c4ccccc43)nc2)CC1 (centres unmarked) [compound 128] | 8.40 |  |  |
| CC(C)N1CCN(C(=O)c2ccc(-c3ccc(N4CCN(C(=O)NC5C6CC7CC5CC(O)(C7)C6)c5ccccc54)cc3)nc2)CC1 (centres unmarked) [compound 27] | 7.77 | 127 |  |
| COCCOCCS(=O)(=O)N1CCN(c2ccc(N3CCN(C(=O)NC4C5CC6CC4CC(C(N)=O)(C6)C5)c4ccccc43)cc2)CC1 (centres unmarked) [compound 125] | 8.15 |  |  |
| CC1(C)[C@@H](OC(=O)CCC(=O)O)CC[C@]2(C)[C@H]3C(=O)C=C4[C@@H]5C[C@@](C)(C(=O)O)CC[C@]5(C)CC[C@@]4(C)[C@]3(C)CC[C@@H]12 [carbenoxolone] |  |  | 18 |
| CC(C)CN1CCN(c2ccc(N3CCN(C(=O)N[C@H]4C5CC6CC4C[C@@](C(N)=O)(C6)C5)c4ccccc43)nc2)CC1 [compound 158, Trans-4-[5-(4-Isobutylpiperazin-1-yl)Pyridin-2-yl]-3,4-dihydro-2H-quinoxaline-1-carboxylic Acid (5-carbamoyladamantan-2-yl)Amide] |  | 209 |  |
| CS(=O)(=O)N1CCC2(CCN(c3ccc(N4CCN(C(=O)NC5C6CC7CC5CC(O)(C7)C6)c5ccccc54)cc3)C2)C1 (centres unmarked) [compound 132] | 6.73 | 127 |  |
| N#C[C@]12CC3CC(C1)[C@H](NC(=O)N1CCN(c4ccc(N5CCN(S(=O)(=O)C6CC6)CC5)cn4)c4ccccc41)C(C3)C2 [compound 165, Trans-4-[5-(4-(Cyclopropanesulphonyl)Piperazin-1-yl)Pyridin-2-yl]-3,4-dihydro-2H-quinoxaline-1-carboxylic Acid (5-cyanoadamantan-2-yl)Amide] |  | 188 |  |
| CS(=O)(=O)CCN1CCN(c2ccc(N3CCN(C(=O)N[C@H]4C5CC6CC4C[C@@](C(N)=O)(C6)C5)c4ccccc43)nc2)CC1 [compound 178, Trans-4-{5-[4-(2-(Methanesulphonyl)Ethyl)Piperazin-1-yl]-pyridin-2-yl}-3,4-dihydro-2H-quinoxaline-1-carboxylic Acid (5-carbamoyladamantan-2-yl)Amide] |  | 204 |  |
| CC(C)(C)N1CCN(c2ccc(N3CCN(C(=O)NC4C5CC6CC4CC(C(N)=O)(C6)C5)c4ccccc43)cc2)CC1 (centres unmarked) [compound 96] | 7.72 | 228 |  |
| O=C(c1ccc(-c2csc(N3CCN(C(=O)NC4C5CC6CC(C5)CC4C6)c4ccccc43)n2)cc1)N1CCOCC1 (centres unmarked) [compound 6] | 6.20 | 163 to 169 |  |
| NC(=O)C12CC3CC(C1)C(NC(=O)N1CCN(c4ccc(N5CCN(S(=O)(=O)C6CCNCC6)CC5)cc4)c4ccccc41)C(C3)C2 (centres unmarked) [compound 95] | 8.10 | 230 |  |
| CC(C)Oc1ccc(-c2ccc(N3CCN(C(=O)NC4C5CC6CC4CC(C(N)=O)(C6)C5)c4ccccc43)cc2)nc1 (centres unmarked) [compound 85] | 8.15 | 193 to 194 |  |
| O=C(NC1C2CC3CC(C2)CC1C3)N1CCN(c2ccc(OCc3ncccn3)cc2)c2ccccc21 (centres unmarked) [Compound No. 3, 4-[4-(Pyrimidin-2-ylmethoxy)Phenyl]-3,4-dihydro-2H-quinoxaline-1-carboxylic Acid adamantan-2-ylamide] | 6.39 | 123 to 125 |  |
| CC(C)(CO)N1CCN(c2ccc(N3CCN(C(=O)N[C@H]4C5CC6CC4C[C@@](C(N)=O)(C6)C5)c4ccccc43)cc2)CC1 [compound 152, Trans-4-{4-[4-(2-Hydroxy-1,1-dimethylethyl)Piperazin-1-yl]phenyl}-3,4-dihydro-2H-quinoxaline-1-carboxylic Acid (5-carbamoyladamantan-2-yl)Amide] |  | 194 to 200 |  |
| O=C(NC1C2CC3CC1CC(O)(C3)C2)N1CCN(c2ccc(N3CCN(C4CC4)CC3)cn2)c2ccccc21 (centres unmarked) [compound 118] | 8.10 | 161 |  |
| O=C(NC1C2CC3CC1CC(O)(C3)C2)N1CCN(c2ccc(N3CCN(S(=O)(=O)C4CCC4)CC3)cn2)c2ccccc21 (centres unmarked) [compound 119] | 8.15 | 188 |  |
| CCS(=O)(=O)N1CCN(c2ccc(N3CCN(C(=O)N[C@H]4C5CC6CC4C[C@@](O)(C6)C5)c4ccccc43)cc2)CC1 [compound 34, trans-4-[4-(4-(Ethanesulphonyl)Piperazin-1-yl)Phenyl]-3,4-dihydro-2H-quinoxaline-1-carboxylic Acid (5-hydroxyadamantan-2-yl)Amide] |  | 138 to 160 |  |
| CCS(=O)(=O)N1CCN(c2ccc(N3CCN(C(=O)N[C@H]4C5CC6CC4C[C@@](C(N)=O)(C6)C5)c4ccccc43)nc2)CC1 [Compound No. 149, Trans-4-[5-(4-(Ethanesulphonyl)Piperazin-1-yl)Pyridin-2-yl]-3,4-dihydro-2H-quinoxaline-1-carboxylic Acid (5-carbamoyladamantan-2-yl)Amide] |  | 175 |  |
